Results on 3 molecules are retold here after patent US20180338952A1, “COMPOSITIONS AND METHODS FOR TREATING AND DIAGNOSING OCULAR DISORDERS” (Translatum Medicus Inc., priority 2014, published 2018).

“Also recorded” adds a separate entry of the source.

Series [1] relates to circulating monocytes and resident macrophages. Briefly: Monocyte/macrophage depletion in the NaIO3 model, FAF/DNIRA pattern. It is filed as in vivo, rat. The settings on record: for NaIO3-induced pattern of FAF (and DNIRA): macrophage/monocyte depletion, Day 3 and Day 7 after NaIO3. The text has this:
To determine the identity of the autofluorescent cells that coincide with the reticular pattern of FAF, excised retina were stained for with markers of the innate immune system, avoiding the 488 nm channel. Iba1 is a pan-microglial/macrophage marker and in the rat retina; antibodies against it identify the major phagocytic cell populations. […] Further, when compared against photoreceptor nuclear staining, this curvilinear pattern is seen to lie interposed between folds of the deformed ONL. This pattern of Iba1^+ cells corresponds with the pattern of hyperfluorescence observed in vivo by FAF imaging, and with the pattern of autofluorescent cells in excised retina. […] Importantly, at 7 days after NaIO3, all RPE cells are absent from the posterior eye cup, confirming that these cells cannot be responsible for the observed FAF. Also, identification of the autofluorescent cells as phagocytic was confirmed by comparison of imaging to preparations in which monocyte/macrophage depletion has been undertaken. Such depletion was achieved by treatment with gadolinium chloride (GAD).
Further, to confirm that hyperfluorescent FAF or abnormal patterns of FAF and hyperfluorescent DNIRA correlated or co-localized with the distribution of phagocytic cells, the circulating macrophage/monocyte population was depleted using gadolinium chloride (GAD or GdCl3), a rare earth metal salt which depresses macrophage activity. […] This was evident qualitatively both within the geographic areas of damage, and at its border (FIGS. 8A-C).

In series [2] the test system is retinal function (b-wave amplitude). Briefly: Electroretinography toxicity study of systemic ICG. The following applies: high (5.0 mg/kg) and low (0.35 mg/kg) systemic dose vs PBS; three weeks following injection.
Experimental: Electroretinography (ERG) was performed to evaluate potential toxicity.
Electroretinography (ERG): animals receiving ICG or PBS were evaluated using the Espion (DiagnosysLLC, USA) mini-Ganzfeld ERG system. Following anesthesia, animals were placed on an electrically silent heating pad and gold coil electrodes placed on the corneal surface after application of GenTeal lubricating drops. Following a short train of dim flashes (0.01 candela s/m^2, 1.0 Hz), a scotopic b-wave amplitude was evaluated using a single bright flash (3 candela s/m^2) that we previously determined consistently produces a response close to the maximum b-wave amplitude. Student t-test was used to compare post-injection amplitudes against baseline (prior to injection).
Series [3] addresses complement factor D (CFD) (Homo sapiens, UniProt P00746). The following applies: phase II, 18 month period, patients; cited from earlier work.

complement factor D (CFD), sequence (P00746 26-253): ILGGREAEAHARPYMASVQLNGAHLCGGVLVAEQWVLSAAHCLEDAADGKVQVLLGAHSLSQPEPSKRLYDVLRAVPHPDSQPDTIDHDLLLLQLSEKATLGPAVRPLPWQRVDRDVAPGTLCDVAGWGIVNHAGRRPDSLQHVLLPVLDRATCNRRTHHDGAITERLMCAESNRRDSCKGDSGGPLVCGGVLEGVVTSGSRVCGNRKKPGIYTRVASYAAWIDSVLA

As for `[Cl][Gd]([Cl])[Cl]` [GAD, gadolinium chloride], the area of damage entry in series [1] (7 days after NaIO3 and simultaneous GAD depletion) is listed as “smaller areas of damage”. The “NaIO3-induced pattern of FAF (and DNIRA)” value in series [1] was “far less well defined reticular patterns of FAF; also recorded: profound alteration; also recorded: less well-demarcated borders”; in series [1] (listed as gadolinium), “alters the FAF pattern”. Regarding `CC1(C)C(/C=C/C=C/C=C/C=C2\N(CCCCS(=O)(=O)O)c3ccc4ccccc4c3C2(C)C)=[N+](CCCCS(=O)(=O)[O-])c2ccc3ccccc3c21` [ICG, indocyanine green], the “change in ERG b-wave amplitude” value in series [2] was “no statistically significant change”. Consider “Lampilizumab: complement factor D (CFD) inhibitor; anti-factor D antibody (Genentech)”, for which, in series [3], the “growth (expansion) of geographic atrophy” value was “can slow the growth”.
